Source: patent US10004701B2, “Methods and compositions for treating infection” (UNIVERSITY OF ROCHESTER, priority 2012, dated 2018)
In brackets after ≈: the same amount, converted by molar mass. Like-named read-outs stand apart in the source and are kept apart here.

Key:
[1] = tested on: Enterobacter cloacae PMD1001; test: MIC testing; assay type: cell-based
[2] = tested on: Pseudomonas aeruginosa PA01; test: MIC testing; assay type: cell-based
Escherichia coli 8295 [3] = test: AK assay 96-well format; assay type: cell-based
[4] = tested on: Enterococcus faecium 824-05; test: AK assay 96-well format; assay type: cell-based
[5] = tested on: Enterococcus faecium 824-05; test: MIC testing; assay type: cell-based
Escherichia coli 8295 [6] = test: MIC testing; assay type: cell-based
[7] = tested on: S. aureus SCV strain UAMS-1112; test: Small-colony variant AK assay (with plating); assay type: cell-based, Staphylococcus aureus
Protocol: Thirty-six-hour cultures of S. aureus strain UAMS-1112 were used to inoculate (1:100 dilution) 100 ml of fresh MH medium and grown at 37° C. on a rotary shaker at 225 rpm to an optical density (600 nm) of 0.1 to 0.2, corresponding to ˜1×10^6 CFU ml^−1. Cells were pelleted by centrifugation and resuspended in 2 ml of fresh MH medium. Ninety-eight microliters of MH medium containing 5×10^6 bacteria and 2 μl of the indicated antibiotic were added to individual wells of a white-walled, 96-well microtiter plate. Well components were mixed by pipetting and incubated at 37° C. for 3 h. The plate was equilibrated to room temperature for 30 min. Next, 100 μl of ToxiLight AK reagent was added to each well, followed by incubation at room temperature for 30 min, and luminescence was measured using a SpectraMax M5 plate reader.
SCV are slow-growing populations of bacterial species that have been hypothesized to cause latent or recurrent infections and are tolerant of standard antibiotic treatment regimens. Based on the aberrant SCV growth characteristics, typical growth-based HTS assays would be difficult to employ. Accordingly, the ability of the AK assay to identify agents that kill S. aureus SCV strain UAMS-1112 was tested. […].

[8] = tested on: Acinetobacter baumannii 98-37-09; test: MIC testing; assay type: cell-based
Staphylococcus aureus = test: MIC testing; assay type: cell-based
[9] = tested on: Klebsiella pneumoniae cKP1; test: MIC testing; assay type: cell-based
E. faecium strain 824-05 = test: Galleria mellonella model of E. faecium infection; assay type: in vivo; settings: larval survival 48 h postinoculation
E. faecium = test: AK assay 384-well format, Prestwick library screening; assay type: cell-based, Enterococcus faecium
E. coli = test: as above; assay type: cell-based, Escherichia coli; settings: Escherichia coli, 3 h; planktonic E. coli; 50 μM final drug concentration; 384-well; cutoff for positive-scoring molecules 3-fold increase; read-out: AK-based Prestwick Library Screening Results: E. coli (increase in extracellular AK activity)
E. cloacae = test: as above; assay type: cell-based, Enterobacter cloacae; settings: Enterobacter cloacae, 3 h; planktonic E. cloacae; 50 μM final drug concentration; 384-well; cutoff for positive-scoring molecules 3-fold increase; read-out: AK-based Prestwick Library Screening Results: E. cloacae (increase in extracellular AK activity)
[10] = tested on: Pseudomonas aeruginosa PA01; test: AK assay 96-well format; assay type: cell-based
[11] = tested on: S. aureus strain USA300-0114; test: AK assay 384-well format, Prestwick library screening; assay type: cell-based, Staphylococcus aureus; settings: Staphylococcus aureus, USA300, 3 h; planktonic S. aureus; 50 μM final drug concentration; 384-well; cutoff for positive-scoring molecules 3-fold increase; read-out: AK-based Prestwick Library Screening Results: S. aureus (increase in extracellular AK activity)
K. pneumoniae = test: as above; assay type: cell-based, Klebsiella pneumoniae; settings: Klebsiella pneumoniae, 3 h; planktonic K. pneumoniae; 50 μM final drug concentration; 384-well; cutoff for positive-scoring molecules 3-fold increase; read-out: AK-based Prestwick Library Screening Results: K. pneumoniae (increase in extracellular AK activity)
[12] = tested on: E. coli and each of the ESKAPE pathogens; test: AK-based Prestwick library screening, summary across organisms; assay type: cell-based; settings: 50 μM, cutoff 3-fold increase in AK
P. aeruginosa = test: AK assay 384-well format, Prestwick library screening; assay type: cell-based, Pseudomonas aeruginosa; settings: Pseudomonas aeruginosa, 3 h; planktonic P. aeruginosa; 50 μM final drug concentration; 384-well; cutoff for positive-scoring molecules 3-fold increase; read-out: AK-based Prestwick Library Screening Results: P. aeruginosa (increase in extracellular AK activity)
[13] = tested on: A. baumannii strain 98-37-09; test: as above; assay type: cell-based, Acinetobacter baumannii; settings: Acinetobacter baumannii, 983709, 3 h; planktonic A. baumannii; 50 μM final drug concentration; 384-well; cutoff for positive-scoring molecules 3-fold increase; read-out: AK-based Prestwick Library Screening Results: A. baumannii (increase in extracellular AK activity)
[14] = tested on: S. aureus strain UAMS-1 static biofilms; test: AK assay of established biofilms (with plating); assay type: cell-based, Staphylococcus aureus; settings: 10×MIC; for decrease in biofilm-associated bacteria / biofilm cell viability (plating): S. aureus UAMS-1 48-h biofilm, vs untreated
[15] = tested on: Klebsiella pneumoniae cKP1; test: AK assay 96-well format; assay type: cell-based
[16] = tested on: Enterobacter cloacae PMD1001; test: AK assay 96-well format; assay type: cell-based
[17] = tested on: Acinetobacter baumannii 98-37-09; test: AK assay 96-well format; assay type: cell-based; settings: for Fold increase in AK signal: Acinetobacter baumannii 98-37-09
[18] = tested on: A. baumannii strain 98-37-09 static biofilms; test: AK assay of established biofilms (with plating); assay type: cell-based, Acinetobacter baumannii; settings: A. baumannii 98-37-09 biofilm; 10×MIC overnight; vs untreated
Protocol: Biofilms were grown as previously described (Beenken et al. Infect. Immun. 71: 4206-4211 (2003); Musken et al. Nat. Protoc. 5: […] (2010); Tomaras et al. Microbiology 149: 3473-3483 (2003)). Briefly, P. aeruginosa and A. baumannii were cultured overnight in Luria-Bertani medium and then used to seed 96-well, flat-bottom plates. Plates were incubated at 37° C. in a humidified incubator for 48 h to allow the formation of static biofilms. Nonadherent cells were removed by aspiration and washing with sterile phosphate-buffered saline (PBS). […] Following treatment, 100 μl of each biofilm supernatant was transferred to 96-well, white-walled plates, 100 μl of ToxiLight AK reagent was added to each well, mixtures were incubated for 30 min at room temperature, and luminescence was measured using a SpectraMax M5 plate reader. Biofilm-associated bacteria were enumerated by resuspending each biofilm in fresh PBS and plating. […] Established S. aureus biofilms were washed once with PBS and then treated with a 100 μl of ToxiLight lysis buffer for 3 h, after which the amount of AK released into supernatants was measured, as described above.
Following overnight antibiotic treatment, biofilm-associated bacteria were enumerated by plating, and the corresponding supernatants were analyzed by the AK assay.

[19] = S. aureus UAMS-1112, 1× or 10×MIC for 3 h
[20] = 82405, Enterococcus faecium 824-05, read-out: MIC
[21] = 983709, Acinetobacter baumannii 98-37-09, read-out: MIC
[22] = Staphylococcus aureus USA300-0114, read-out: MIC
[23] = Klebsiella pneumoniae cKP1, read-out: MIC

## CN[C@H](CC(C)C)C(=O)N[C@H]1C(=O)N[C@@H](CC(N)=O)C(=O)N[C@H]2C(=O)N[C@H]3C(=O)N[C@H](C(=O)N[C@H](C(=O)O)c4cc(O)cc(O)c4-c4cc3ccc4O)[C@H](O)c3ccc(c(Cl)c3)Oc3cc2cc(c3O[C@@H]2O[C@H](CO)[C@@H](O)[C@H](O)[C@H]2O[C@H]2C[C@](C)(N)[C@H](O)[C@H](C)O2)Oc2ccc(cc2Cl)[C@H]1O [Vancomycin, vancomycin]
[1]
  MIC: > 256 µg/mL
[2]
  MIC: > 256 µg/mL
Escherichia coli 8295 [3]; treatment 0.5×MIC
  Fold increase in AK signal: 1 fold
Escherichia coli 8295 [3]; treatment 1.0×MIC
  Fold increase in AK signal: 2 fold
[4]; treatment 0.5×MIC
  Fold increase in AK signal: 1 fold
[4]; treatment 1.0×MIC
  Fold increase in AK signal: 2 fold
[5]; Enterococcus faecium, 82405
  MIC: 2 µg/mL (≈ 1.38 µM)
Escherichia coli 8295 [6]
  MIC: 16 µg/mL (≈ 11 µM)
[7]; [19]
  decrease in SCV viability (plating): no effect
  increase in AK signal compared to mock-treated cells: no change
[8]; Acinetobacter baumannii, 983709
  MIC: 64 µg/mL (≈ 44.2 µM)
Staphylococcus aureus; Staphylococcus aureus
  MIC: 2 µg/mL (≈ 1.38 µM)
Staphylococcus aureus; Staphylococcus aureus, USA300
  MIC: 1 µg/mL (≈ 0.69 µM)
[9]; Klebsiella pneumoniae, CKP1
  MIC: > 256 µg/mL

## CC/C(=C(\c1ccccc1)c1ccc(OCCN(C)C)cc1)c1ccccc1 [Tamoxifen, tamoxifen]
E. faecium strain 824-05; 80 mg kg-1 at 2 h and 24 h
  higher survival than vehicle-treated controls: 4.2 fold
E. faecium strain 824-05; 160 mg kg-1 at 2 h and 24 h
  higher survival than vehicle-treated controls: 7 fold
[5]; [20]
  MIC: 8 µg/mL (≈ 21.5 µM)
E. faecium; E. faecium, 50 μM, cutoff 3-fold increase in AK
  activity in AK Prestwick screen: identified

## CC[C@H]1OC(=O)[C@H](C)[C@@H](O[C@H]2C[C@@](C)(OC)[C@@H](O)[C@H](C)O2)[C@H](C)[C@@H](O[C@@H]2O[C@H](C)C[C@H](N(C)C)[C@H]2O)[C@](C)(O)C[C@@H](C)C(=O)[C@H](C)[C@@H](O)[C@]1(C)O [Erythromycin, erythromycin]
[1]
  MIC: 256 µg/mL (≈ 349 µM)
E. coli
  fold induction at 50 µM: 1
[2]; read-out: MIC
  MIC: 32 µg/mL (≈ 43.6 µM)
E. cloacae
  fold induction at 50 µM: 1.6
[10]; treatment 0.5×MIC
  Fold increase in AK signal: 3 fold
[10]; treatment 1.0×MIC
  Fold increase in AK signal: 1 fold
[5]; [20]
  MIC: > 256 µg/mL
Escherichia coli 8295 [6]
  MIC: 256 µg/mL (≈ 349 µM)
[11]
  fold induction at 50 µM: 8.2
K. pneumoniae
  fold induction at 50 µM: 1
[12]
  activity in AK Prestwick screen, all species tested: not identified as being active
[8]; [21]
  MIC: 16 µg/mL (≈ 21.8 µM)
Staphylococcus aureus; Staphylococcus aureus
  MIC: 2 µg/mL (≈ 2.73 µM)
Staphylococcus aureus; [22]
  MIC: 64 µg/mL (≈ 87.2 µM)
P. aeruginosa
  fold induction at 50 µM: 0.7
E. faecium; Enterococcus faecium, 3 h, planktonic E. faecium, 50 μM final drug concentration, 384-well, cutoff for positive-scoring molecules 3-fold increase, read-out: AK-based Prestwick Library Screening Results: E. faecium (increase in extracellular AK activity)
  fold induction at 50 µM: 1
[9]; [23]
  MIC: > 256 µg/mL
[13]
  fold induction at 50 µM: 1.5

## O=C(O)c1cn(C2CC2)c2cc(N3CCNCC3)c(F)cc2c1=O [Ciprofloxacin, ciprofloxacin]
[14]
  decrease in biofilm-associated bacteria / biofilm cell viability (plating): 0.7 log
[7]; [19]
  decrease in SCV viability (plating): no effect
  increase in AK signal compared to mock-treated cells: no change

## CC(C)(C)c1ccc(C(O)CCCN2CCC(C(O)(c3ccccc3)c3ccccc3)CC2)cc1 (stereo not shown) [Terfenadine]
[14]; 48-h S. aureus UAMS-1 biofilms
  increase in AK release: 2.7 fold
[14]
  decrease in biofilm-associated bacteria / biofilm cell viability (plating): 1.1 log
[7]; S. aureus small-colony-variant UAMS-1112, 10×MIC
  increase in AK signal compared to mock-treated cells: 3.3 fold
[8]; [21]
  MIC: 64 µg/mL (≈ 136 µM)
Staphylococcus aureus; Staphylococcus aureus, S. aureus UAMS-1112 (small-colony variant), read-out: MIC
  MIC: 2 µg/mL (≈ 4.24 µM)

## CN(C)c1ccc(O)c2c1C[C@H]1C[C@H]3[C@H](N(C)C)C(O)=C(C(N)=O)C(=O)[C@@]3(O)C(O)=C1C2=O [Minocycline, minocycline]
[1]; read-out: MIC
  MIC: 4 µg/mL (≈ 8.74 µM)
[15]; treatment 0.5×MIC
  Fold increase in AK signal: 1 fold
[15]; treatment 1.0×MIC
  Fold increase in AK signal: 1 fold
[2]; read-out: MIC
  MIC: 32 µg/mL (≈ 69.9 µM)
[16]; treatment 0.5×MIC
  Fold increase in AK signal: 4 fold
[16]; treatment 1.0×MIC
  Fold increase in AK signal: 9 fold
Escherichia coli 8295 [3]; treatment 0.5×MIC
  Fold increase in AK signal: 4 fold
Escherichia coli 8295 [3]; treatment 1.0×MIC
  Fold increase in AK signal: 38 fold
[4]; treatment 0.5×MIC
  Fold increase in AK signal: 3 fold
[4]; treatment 1.0×MIC
  Fold increase in AK signal: 4 fold
[10]; treatment 0.5×MIC
  Fold increase in AK signal: 1 fold
[10]; treatment 1.0×MIC
  Fold increase in AK signal: 6 fold
[5]; [20]
  MIC: 1 µg/mL (≈ 2.19 µM)
Escherichia coli 8295 [6]; read-out: MIC
  MIC: 16 µg/mL (≈ 35 µM)
[8]; [21]
  MIC: 1 µg/mL (≈ 2.19 µM)
Staphylococcus aureus; Staphylococcus aureus
  MIC: 8 µg/mL (≈ 17.5 µM)
Staphylococcus aureus; [22]
  MIC: 1 µg/mL (≈ 2.19 µM)
[9]; [23]
  MIC: 64 µg/mL (≈ 140 µM)

## colistin
[1]
  MIC: 2 µg/mL
[15]; treatment 0.5×MIC
  Fold increase in AK signal: 34 fold
[15]; treatment 1.0×MIC
  Fold increase in AK signal: 33 fold
[2]
  MIC: 4 µg/mL
[16]; treatment 0.5×MIC
  Fold increase in AK signal: 10 fold
[16]; treatment 1.0×MIC
  Fold increase in AK signal: 32 fold
Escherichia coli 8295 [3]; treatment 0.5×MIC
  Fold increase in AK signal: 15 fold
Escherichia coli 8295 [3]; treatment 1.0×MIC
  Fold increase in AK signal: 22 fold
[10]; treatment 0.5×MIC
  Fold increase in AK signal: 5 fold
[10]; treatment 1.0×MIC
  Fold increase in AK signal: 12 fold
[17]; A. baumannii 98-37-09, 0.25×, 0.5×, and 1×MIC
  AK release: robustly detected
[17]; treatment 0.5×MIC
  Fold increase in AK signal: 17 fold
[17]; treatment 1.0×MIC
  Fold increase in AK signal: 49 fold
[5]; Enterococcus faecium 824-05
  MIC: >256 µg/mL
Escherichia coli 8295 [6]
  MIC: 8 µg/mL
[8]; Acinetobacter baumannii 98-37-09
  MIC: 4 µg/mL
Staphylococcus aureus; Staphylococcus aureus RN4220
  MIC: >256 µg/mL
Staphylococcus aureus; Staphylococcus aureus USA300-0114
  MIC: >256 µg/mL
[9]; Klebsiella pneumoniae cKP1
  MIC: 8 µg/mL
[18]
  decrease in biofilm-associated bacteria (plating): 1.8 log
